The target of one test is PKCη(h) (Homo sapiens, UniProt P24723). In words: Protein kinase inhibition assay. The format is biochemical. The following applies: read-out: percent residual activity of PKCη(h). The protocol:
(§1) Certain compounds were tested for activity in protein kinase inhibition assays. All substrates were dissolved and diluted to working stocks in de-ionized water, apart from histone H1 (10× working stock in 20 mM MOPS pH 7.0), PDKtide (10× working stock in 50 mM Tris pH 7.0) ATF2 (which is typically stored at a 20× working stock in 50 mM Tris pH 7.5, 150 mM NaCl, 0.1 mM EGTA, 0.03% Brij-35, 50% glycerol, 1 mM benzamidine, 0.2 mM PMSF and 0.1% R-mercaptoethanol), KKLNRTLSFAEPG (SEQ ID NO:203) and RRRLSFAEPG (SEQ ID NO:204) (50 mM HEPES pH 7.4) and GGEEEEYFELVKKKK (SEQ ID NO:205) (20 mM MOPS pH 7.0). All kinases were pre-diluted to a 10× working concentration prior to addition into the assay. The composition of the dilution buffer for each kinase is detailed below.
In a final reaction volume of 25 μl, PKCη (h) (5-10 mU) is incubated with 20 mM HEPES pH 7.4, 0.03% Triton X-100, 0.1 mM CaCl2, 0.1 mg/ml phosphatidylserine, 10 μg/ml diacylglycerol, 50 μM ERMRPRKRQGSVRRRV (SEQ ID NO:234), 10 mM MgAcetate and [gamma-33P-ATP] (specific activity approx. 500 cpm/pmol, concentration as required). The reaction is initiated by the addition of the MgATP mix. After incubation for 40 minutes at room temperature, the reaction is stopped by the addition of 5 μl of a 3% phosphoric acid solution. […]

The next test concerns the target PAK4(h) (Homo sapiens, UniProt O96013). The test can be described thus: Protein kinase inhibition assay. The class given is biochemical. The settings on record: read-out: percent residual activity of PAK4(h). As for the experimental part: as §1
(§2) In a final reaction volume of 25 μl, PAK4 (h) (5-10 mU) is incubated with 8 mM MOPS pH 7.0, 0.2 mM EDTA, 0.8 mg/ml myelin basic protein, 10 mM MgAcetate and [gamma-33P-ATP] (specific activity approx. 500 cpm/pmol, concentration as required). The reaction is initiated by the addition of the MgATP mix. After incubation for 40 minutes at room temperature, the reaction is stopped by the addition of 5 μl of a 3% phosphoric acid solution. 10 μl of the reaction is then spotted onto a P30 filtermat and washed three times for 5 minutes in 75 mM phosphoric acid and once in methanol prior to drying and scintillation counting.

In a further test the test system is HCT116 cells. In words: Total (nucleolar) RNA synthesis (3H-uridine incorporation). The format is cell-based. Set-up: 3H-uridine incorporation, time course: unit of the concentration uncertain. As for the experimental part:
Effects of compound A-1 and compound B-1 on DNA synthesis, RNA synthesis and protein synthesis were determined in HCT116 cells. HCT116 cells were plated overnight at 100,000 cells per mL. Next day cells were treated with increasing amounts of either compound A-1 or compound B-1 followed by one hour incubation with BrdU label (from a BrdU Cell proliferation Assay Kit, Calbiochem) to monitor DNA synthesis; […] of ^3H-uridine to monitor total RNA synthesis; […] of ^3H-methionine to monitor protein synthesis or plain media to monitor RNA Polymerase II-dependent RNA synthesis. DNA synthesis was assessed using a BrdU-ELISA (BrdU Cell proliferation Assay Kit, Calbiochem). To measure total RNA synthesis, total RNA from treated cells was isolated with a RNease kit (QIAGEN), levels of total RNA were assessed with Ribogreen reagent (Invitrogen) and the newly synthesized tritiated RNA was measured in a scintillation Counter (Perkin Elmer). To measure effects on protein synthesis, cells were lysed in a RIPA buffer, and total protein was precipitated with 10% TCA on a glass-filters. Newly synthesized tritiated protein was measured in a scintillation Counter (Perkin Elmer). Effects of drugs on […] RNA synthesis were assessed by monitoring levels of a c-myc mRNA, which has a relatively short half-life of approximately 30 minutes, by Taqman qRT-PCR (ABI).

The target of another test is HIPK2(h) (Homo sapiens, UniProt Q9H2X6). The test can be described thus: Protein kinase inhibition assay. The following applies: read-out: percent residual activity of HIPK2(h). The class given is biochemical. The protocol: as §1
as §2, with “HIPK2” for “PAK4”, “0.33” for “0.8”, “filtermat” for “filtermat and”

In another test the target is CDK1/cyclinB(h) (Homo sapiens, UniProt P06493). The test can be described thus: Protein kinase inhibition assay. The class given is biochemical. The settings on record: read-out: percent residual activity of CDK1/cyclinB(h). As for the experimental part: as §1
as §2, with “CDK1/cyclinB” for “PAK4”, “0.1” for “0.8”, “histone H1,” for “myelin basic protein,”

The target of a further test is EphA4(h) (Homo sapiens, UniProt P54764). In words: Protein kinase inhibition assay. The format is biochemical. The following applies: read-out: percent residual activity of EphA4(h). As for the experimental part:
as §1
as §2, with “EphA4” for “PAK4”, “10 mM MnCl2, 0.1” for “0.8”, “poly(Glu, Tyr) 4:1,” for “myelin basic protein,”, “[y-33P-ATP]” for “[gamma-33P-ATP]”, “Filtermat A” for “P30 filtermat”

The values that follow come from patent publication US20070117770A1, “Human ribosomal DNA (rDNA) and ribosomal RNA (rRNA) nucleic acids and uses thereof” (Cylene Pharmaceuticals, Inc., priority 2005, published 2007).

Molecules are shown by their SMILES.

Sequence of CDK1/cyclinB(h) (P06493 whole entry): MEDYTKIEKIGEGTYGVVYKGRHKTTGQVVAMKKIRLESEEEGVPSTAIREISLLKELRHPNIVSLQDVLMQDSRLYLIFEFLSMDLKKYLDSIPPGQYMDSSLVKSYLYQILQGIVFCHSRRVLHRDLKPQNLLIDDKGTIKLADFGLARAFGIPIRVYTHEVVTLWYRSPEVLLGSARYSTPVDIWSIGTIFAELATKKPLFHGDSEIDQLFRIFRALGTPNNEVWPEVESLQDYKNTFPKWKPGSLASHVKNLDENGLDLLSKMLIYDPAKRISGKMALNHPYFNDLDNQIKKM
Sequence of CDK1/cyclinB(h) (P14635 whole entry partner): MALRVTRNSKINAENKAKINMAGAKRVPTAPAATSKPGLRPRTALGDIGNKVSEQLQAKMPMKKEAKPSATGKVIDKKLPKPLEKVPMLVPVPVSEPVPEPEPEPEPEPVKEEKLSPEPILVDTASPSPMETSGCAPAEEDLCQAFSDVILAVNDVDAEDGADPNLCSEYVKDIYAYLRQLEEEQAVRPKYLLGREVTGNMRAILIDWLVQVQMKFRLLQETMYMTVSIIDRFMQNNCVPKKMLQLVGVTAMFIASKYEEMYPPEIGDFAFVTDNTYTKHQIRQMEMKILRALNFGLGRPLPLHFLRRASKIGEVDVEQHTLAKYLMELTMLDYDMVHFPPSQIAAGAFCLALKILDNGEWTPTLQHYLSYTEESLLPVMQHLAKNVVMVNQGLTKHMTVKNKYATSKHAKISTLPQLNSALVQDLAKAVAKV
Sequence of PKCη(h) (P24723 whole entry): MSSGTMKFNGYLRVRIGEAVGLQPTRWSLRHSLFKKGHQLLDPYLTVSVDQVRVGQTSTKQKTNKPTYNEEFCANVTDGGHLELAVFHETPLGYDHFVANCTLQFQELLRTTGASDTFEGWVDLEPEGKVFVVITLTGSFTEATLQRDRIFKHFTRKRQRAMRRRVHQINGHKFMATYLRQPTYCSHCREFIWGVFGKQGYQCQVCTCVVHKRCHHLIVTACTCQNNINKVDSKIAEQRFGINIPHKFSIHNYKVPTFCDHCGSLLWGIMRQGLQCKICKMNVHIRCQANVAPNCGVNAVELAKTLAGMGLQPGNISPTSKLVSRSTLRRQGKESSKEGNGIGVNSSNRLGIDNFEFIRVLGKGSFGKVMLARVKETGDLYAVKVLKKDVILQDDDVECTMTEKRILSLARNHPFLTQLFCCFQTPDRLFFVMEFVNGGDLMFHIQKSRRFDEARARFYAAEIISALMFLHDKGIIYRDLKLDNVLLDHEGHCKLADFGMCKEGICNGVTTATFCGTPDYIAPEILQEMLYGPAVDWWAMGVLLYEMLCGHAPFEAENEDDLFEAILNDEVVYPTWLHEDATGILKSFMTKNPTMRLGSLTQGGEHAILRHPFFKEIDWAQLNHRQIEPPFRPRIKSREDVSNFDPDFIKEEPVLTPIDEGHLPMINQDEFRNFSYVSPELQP
Sequence of EphA4(h) (P54764 20-986): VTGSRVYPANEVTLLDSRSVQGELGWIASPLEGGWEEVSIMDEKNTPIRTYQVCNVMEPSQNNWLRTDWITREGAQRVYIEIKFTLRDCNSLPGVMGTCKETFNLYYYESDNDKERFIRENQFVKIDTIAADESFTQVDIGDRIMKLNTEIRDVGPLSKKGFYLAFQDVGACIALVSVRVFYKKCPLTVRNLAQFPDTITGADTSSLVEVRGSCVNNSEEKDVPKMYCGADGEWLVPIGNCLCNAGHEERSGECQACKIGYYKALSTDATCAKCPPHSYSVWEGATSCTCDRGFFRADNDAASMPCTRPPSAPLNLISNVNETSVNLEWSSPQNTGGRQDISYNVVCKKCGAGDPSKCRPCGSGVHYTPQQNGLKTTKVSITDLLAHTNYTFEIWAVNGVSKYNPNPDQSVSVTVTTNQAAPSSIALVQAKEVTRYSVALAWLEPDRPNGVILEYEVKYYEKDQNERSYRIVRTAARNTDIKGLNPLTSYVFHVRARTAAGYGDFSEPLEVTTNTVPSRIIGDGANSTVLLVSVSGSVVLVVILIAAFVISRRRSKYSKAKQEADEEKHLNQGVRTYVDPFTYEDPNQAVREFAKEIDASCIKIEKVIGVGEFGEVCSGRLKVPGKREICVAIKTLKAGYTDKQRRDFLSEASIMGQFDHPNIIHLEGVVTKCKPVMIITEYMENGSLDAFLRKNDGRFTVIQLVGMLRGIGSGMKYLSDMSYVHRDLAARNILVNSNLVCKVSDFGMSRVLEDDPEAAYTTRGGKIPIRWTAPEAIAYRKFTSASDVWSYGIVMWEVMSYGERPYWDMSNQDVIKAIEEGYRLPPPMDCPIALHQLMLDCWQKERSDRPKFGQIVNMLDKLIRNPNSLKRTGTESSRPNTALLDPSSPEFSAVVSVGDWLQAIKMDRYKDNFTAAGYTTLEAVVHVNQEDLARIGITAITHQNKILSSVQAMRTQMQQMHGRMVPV
Sequence of HIPK2(h) (Q9H2X6 whole entry): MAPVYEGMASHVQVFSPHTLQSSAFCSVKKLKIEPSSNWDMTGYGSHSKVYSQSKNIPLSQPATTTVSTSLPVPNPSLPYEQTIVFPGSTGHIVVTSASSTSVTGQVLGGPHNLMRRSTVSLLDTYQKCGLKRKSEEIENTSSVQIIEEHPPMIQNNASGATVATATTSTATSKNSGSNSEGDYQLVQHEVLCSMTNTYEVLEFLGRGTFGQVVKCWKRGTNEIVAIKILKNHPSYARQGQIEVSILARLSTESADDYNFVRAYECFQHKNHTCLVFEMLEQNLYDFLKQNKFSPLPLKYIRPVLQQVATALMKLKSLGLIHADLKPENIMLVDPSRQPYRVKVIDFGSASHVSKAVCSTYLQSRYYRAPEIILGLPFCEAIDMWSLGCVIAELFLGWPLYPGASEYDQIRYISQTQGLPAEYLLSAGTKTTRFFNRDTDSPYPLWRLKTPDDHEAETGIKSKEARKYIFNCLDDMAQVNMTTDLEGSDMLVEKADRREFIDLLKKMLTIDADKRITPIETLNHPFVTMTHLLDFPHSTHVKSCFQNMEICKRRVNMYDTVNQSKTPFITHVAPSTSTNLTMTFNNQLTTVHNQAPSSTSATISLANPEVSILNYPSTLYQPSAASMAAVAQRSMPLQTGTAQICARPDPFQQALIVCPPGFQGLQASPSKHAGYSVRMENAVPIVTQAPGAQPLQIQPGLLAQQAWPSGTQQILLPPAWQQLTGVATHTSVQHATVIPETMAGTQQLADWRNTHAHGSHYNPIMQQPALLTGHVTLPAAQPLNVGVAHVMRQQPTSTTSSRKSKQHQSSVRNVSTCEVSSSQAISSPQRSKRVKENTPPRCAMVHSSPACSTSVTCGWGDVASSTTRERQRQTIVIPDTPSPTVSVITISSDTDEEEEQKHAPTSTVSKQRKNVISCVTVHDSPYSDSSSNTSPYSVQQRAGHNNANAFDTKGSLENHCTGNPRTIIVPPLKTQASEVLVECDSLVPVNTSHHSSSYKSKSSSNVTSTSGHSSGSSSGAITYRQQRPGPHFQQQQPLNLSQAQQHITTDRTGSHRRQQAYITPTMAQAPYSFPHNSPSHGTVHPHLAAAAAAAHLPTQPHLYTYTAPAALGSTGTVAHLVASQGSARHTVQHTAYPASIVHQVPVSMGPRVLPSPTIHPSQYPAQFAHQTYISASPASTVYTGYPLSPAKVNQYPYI
Sequence of PAK4(h) (O96013 whole entry): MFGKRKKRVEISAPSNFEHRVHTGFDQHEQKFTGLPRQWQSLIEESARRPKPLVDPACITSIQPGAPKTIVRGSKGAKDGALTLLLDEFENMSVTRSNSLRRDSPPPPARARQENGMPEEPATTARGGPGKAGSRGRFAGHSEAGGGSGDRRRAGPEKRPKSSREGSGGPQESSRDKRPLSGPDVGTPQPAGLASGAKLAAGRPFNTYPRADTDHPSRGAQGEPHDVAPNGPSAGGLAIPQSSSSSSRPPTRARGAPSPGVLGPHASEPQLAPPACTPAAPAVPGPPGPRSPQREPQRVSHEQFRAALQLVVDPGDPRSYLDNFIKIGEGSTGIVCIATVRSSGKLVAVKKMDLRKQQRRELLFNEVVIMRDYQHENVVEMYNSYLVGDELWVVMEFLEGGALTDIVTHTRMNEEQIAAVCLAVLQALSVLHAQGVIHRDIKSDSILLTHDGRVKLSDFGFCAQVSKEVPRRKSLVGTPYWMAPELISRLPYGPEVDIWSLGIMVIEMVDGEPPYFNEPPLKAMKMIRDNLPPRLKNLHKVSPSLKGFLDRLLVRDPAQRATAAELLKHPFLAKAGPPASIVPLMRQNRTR

With `CN1CCCC1CCNC(=O)c1cn2c3c(c(N4CCC(c5cnccn5)C4)c(F)cc3c1=O)Oc1cc3ccccc3cc1-2` (centres unmarked) [Compound A-1], the remaining activity at 2.5 µM came to 80% on PKCη(h); 99% at PAK4(h); 106% at HIPK2(h); 84% at CDK1/cyclinB(h); 107% at EphA4(h). In addition, the concentration that significantly reduced nucleolar RNA synthesis with HCT116 cells came out at 1 µM. In addition, in the test with HCT116 cells (3 (unit uncertain) for 15 min), the “3H-uridine incorporation, time course” value is “substantially inhibited”.

For `CC(=O)N1CCN(c2ccc3c(=O)c(C(=O)NCCN4CCCC4)c4n(C)c5ccccc5n4c3n2)CC1` [Compound B-1], the remaining activity at 2.5 µM at PKCη(h) was 80%; on PAK4(h), 96%; on HIPK2(h), 111%; at CDK1/cyclinB(h), 93%; on EphA4(h), 134%. In the test with HCT116 cells, this compound came in with a concentration that significantly reduced nucleolar RNA synthesis of 10 µM. In the test on HCT116 cells (10 (unit uncertain) for 30 min), the “3H-uridine incorporation, time course” value is listed as “substantially inhibited”.
